Laboratory results published in patent US10450364B2 (priority 2017, dated 2019).
Where “and” joins values, the source holds several entries; their conditions need not be identical. Equal values may be shown once. Where a SMILES comes first, the peptide text is derived from it. Bridges are numbered along the chain shown (N, C = ends). [ ]: non-standard residue; d: D form. The star is where a group is joined. Ileψ(thiazoline)Cys = CC[C@H](C)[C@H](N)C1=N[C@H](C(=O)*)CS1; dOrn = NCCC[C@@H](N)C(=O)O

Assays:
[1] = system: C. perfringens; set-up: species or system broiler chickens (Cobb 500); conditions: in vivo
[2] = system: Clostridium perfringens; set-up: species or system broiler chickens (Cobb 500); conditions: in vivo
[3] = system: Clostridium perfringens; type: in vivo, broiler chickens; conditions: subclinical NE
[4] = raw data of individual birds, 0.5% egg powder, cells marked * removed as outlier

Row | Compound | % NE Mortality [1] [bc %] | Feed Intake D 0-28 [1] [bcd] | Lesion Score (0-3) [1] [bc] | Weight Gain D 0-28 [1] [bcd] | % NE Mortality [2] [bcde %] | Feed Intake D 0-28 [2] [bc] | Lesion Score (0-3) [2] [bc] | Weight Gain D 0-28 [2] [bcd] | Weight gain (g) day 0-6 post challenge, Average ([3]; group average, 0.5% egg powder) [g] | Weight gain (g) day 0-11 post challenge, Average ([3]; group average, 0.5% egg powder) [g] | Lesion Score - day 2 post challenge, Average ([3]; group average, egg powder 0.5% in feed (Vir 20 g/ton), scale 0 to 4) | Weight gain (g) day 0-6 post challenge [3, 4] | Weight gain (g) day 0-11 post challenge [3, 4] | Lesion Score - day 2 post challenge ([3]; raw data of individual birds, egg powder 0.5% in feed (Vir 20 g/ton), scale 0 (none) to 4 (high))
1 | CC[C@H](C)[C@H](N)C1=N[C@H](C(=O)N[C@@H](CC(C)C)C(=O)N[C@H](CCC(=O)O)C(=O)N[C@H](C(=O)N[C@H]2CCCCNC(=O)[C@H](CC(N)=O)NC(=O)[C@@H](CC(=O)O)NC(=O)[C@H](Cc3cnc[nH]3)NC(=O)[C@@H](Cc3ccccc3)NC(=O)[C@H]([C@@H](C)CC)NC(=O)[C@@H](CCCN)NC2=O)[C@@H](C)CC)CS1 [bacitracin] ({Ileψ(thiazoline)Cys}-L[dE]IK[dOrn]I[dF]H[dD]N; lactam 4-C) | 9.4 | 6.708 | 1.3 | 0.648 | 10.9 | 8.040 | 1.0 | 0.590 |  |  |  |  |  | 
2 | Virginiamycin |  |  |  |  |  |  |  |  | 226 | 570 | 0.5 | 267 g and 211 g (2×) and 256 g and 252 g and 170 g and 213 g and 289 g and 162 g (2×) and 229 g and 241 g and 203 g and 157 g and 195 g and 238 g and 321 g and 233 g and 319 g and 182 g and 239 g | 618 g and 554 g and 520 g and 540 g and 467 g and 479 g and 544 g and 566 g and 420 g and 552 g and 607 g and 686 g and 568 g and 723 g and 709 g | 1 (3×) and 0 (3×)
